# According to ChEMBL document CHEMBL3044773, “Adulticidal activity of phthalides identified in Cnidium officinale rhizome to B- and Q-biotypes of Bemisia tabaci” (2011):
# How the values were obtained:
# Assay type in all cases: functional
# Bemisia tabaci [1] = assay: Biotype susceptibility ratio, ratio of LC50 for female adult Bemisia tabaci biotype Q (sweet potato whitefly) to LC50 for female adult Bemisia tabaci biotype B
# Bemisia tabaci [2] = assay: Adulticidal activity against female Bemisia tabaci biotype B (sweet potato whitefly) in cucumber leaves assessed as residual contact toxicity treated for 30 secs before adult insect infestation measured after 24 hr by leaf dip bioassay; conditions: foliar
# Bemisia tabaci [3] = assay: Adulticidal activity against female Bemisia tabaci biotype Q (sweet potato whitefly) in cucumber leaves assessed as residual contact toxicity treated for 30 secs before adult insect infestation measured after 24 hr by leaf dip bioassay; conditions: foliar
Compound,RatioLC50 (Bemisia tabaci [1]),LC50 (Bemisia tabaci [2]),LC50 (Bemisia tabaci [3])
CCC/C=C1\OC(=O)C2=C1CCC=C2 [LIGUSTILIDE],0.9,268 µg/mL,254 µg/mL
CN1COCN(Cc2cnc(Cl)s2)/C1=N\[N+](=O)[O-] [THIAMETHOXAM],>1764.7,1.7 µg/mL,> 3000 µg/mL
CCCC[C@@H]1OC(=O)c2ccccc21 [(3S)-BUTYLPHTHALIDE],1,339 µg/mL,338 µg/mL
CCN(CC)c1nc(C)cc(OP(=S)(OC)OC)n1 [PIRIMIPHOS METHYL],1.3,188 µg/mL,235 µg/mL
C/C(=N\C#N)N(C)Cc1ccc(Cl)nc1 [ACETAMIPRID],31.4,11.6 µg/mL,364 µg/mL
CCC/C=C1\OC(=O)c2ccccc21 [Z-butylidenephthalide],2.3,254 µg/mL,586 µg/mL
O=[N+]([O-])/N=C1\NCCN1Cc1ccc(Cl)nc1 [IMIDACLOPRID],>428.6,7 µg/mL,> 3000 µg/mL
CC1(C)C(C=C(Cl)Cl)C1C(=O)OC(C#N)c1cccc(Oc2ccccc2)c1 (stereo not drawn) [ALPHA-CYPERMETHRIN],1.4,337 µg/mL,482 µg/mL
CC(C)(C)c1ccc(CSc2cnn(C(C)(C)C)c(=O)c2Cl)cc1 [PYRIDABEN],1.6,129 µg/mL,211 µg/mL
COP(=O)(OC)OC=C(Cl)Cl [DICHLORVOS],1.2,182 µg/mL,224 µg/mL
